Results reported in publication PMC9122626 (2020).

Test system: human telomeric G4 DNA, dAGGG(TTAGGG)3 (DNA, G4) AGGGTTAGGGTTAGGGTTAGGG
Test: CD melting (295 nm)
Settings: Na+ 100 mM; peptide concentration not given

In the case of N[C@@H](Cc1ccc(O)cc1)C(=O)N[C@@H](CCC(=O)N[C@@H](CCC(=O)O)C(=O)O)C(=O)N[C@@H](CCC(=O)O)C(=O)O (racemic), the ΔTm is reported as ~ 3 °C.
